Measurements from US20080261911A1, “Uses of diphenyl/diphenylamine carboxylic acids” (priority 2006, published 2008).
Entries after “also recorded” stand apart in the source; their conditions may differ.

Legend:
VEGFR1 [1] = experiment: VEGFR1 protein expression in L3.6pl cells (Western blot); assay type: cell-based, human; conditions: 50 μM, 48 h
Description: FIGS. 14A-14D show tolfenamic acid decreases expression of Sp and VEGFR1 proteins in pancreatic cancer cells. Tolfenamic acid effects on Panc-1 cells (FIG. 14A and FIG. 14B), and L3.6pl cells (FIG. 14C and FIG. 14D). Cells were treated with DMSO, 50 μM tolfenamic acid, or 50 μM ampiroxicam for 48 h, and whole cell lysates were analyzed by Western blot analysis. […] FIGS. 16A-16D show the interaction of Sp proteins with VEGFR1 promoter sequences. […] The specific Sp protein bands and antibody supershifted complexes are indicated with arrows. Effects of tolfenamic acid on VEGFR1 and Egr-1 protein expression in Panc-1 cells (FIG. 16C), and L3.6pl cells (FIG. 16D). […] Samples are electrophoresed, transferred to membranes, and proteins detected by incubation with polyclonal primary antibodies Sp1, Sp3, Sp4, HDAC, VEGF (a-20), c-Met, surviving, VEGF, cleaved PARP, and β-tubulin (H-235) followed by blotting with appropriate horseradish peroxidase-conjugated secondary antibody as previously described (Abdelrahim et al, 2004). After autoradiography, band intensities are determined by a scanning laser densitometer (Sharp Electronics Corporation, Mahwah, N.J.) using ZERO-D […] software (Scanalytics Corporation, Billerica, Mass.).

Egr-1 protein [2] = experiment: Egr-1 protein expression in L3.6pl cells, Western blot; assay type: cell-based, human; conditions: 50 μM, 48 h
Description: (§1) Cells are washed once with phosphate buffered saline PBS and collected by scraping in 200 μL of lysis buffer [50 mM HEPES, 0.5M sodium chloride, 1.5 mM magnesium chloride, 1 mM EGTA, 10% (v/v) glycerol, 1% Triton X-100, 5 μL/ml of Protease Inhibitor Cocktail (Sigma)]. The lysates from the cells are incubated on ice for 1 hr with intermittent vortexing followed by centrifugation at 40,000 g for 10 min at 4° C. Equal amounts of protein (60 μg) from each treatment group are diluted with loading buffer, boiled and loaded onto 10 and 12.5% SDS-polyacrylamide gel. For vascular endothelial growth factor immunoblots, 100 μg of protein are used. Samples are electrophoresed, transferred to membranes, and proteins detected by incubation with polyclonal primary antibodies Sp1, Sp3, Sp4, HDAC, VEGF (a-20), c-Met, surviving, VEGF, cleaved PARP, and β-tubulin (H-235) followed by blotting with appropriate horseradish peroxidase-conjugated secondary antibody as previously described (Abdelrahim et al, 2004). After autoradiography, band intensities are determined by a scanning laser densitometer (Sharp Electronics Corporation, Mahwah, N.J.) using ZERO-D SCANALYTICS software (Scanalytics Corporation, Billerica, Mass.).
(§2) The proximal region of the VEGFR1 promoter contains GC-rich and Egr-1 sites. […]

[3] = test system: Sp1, Sp3, and Sp4 proteins; experiment: Western blot of Sp1, Sp3 and Sp4 protein expression in Panc-1 cells; assay type: cell-based; conditions: for Sp1, Sp3, and Sp4 protein expression: Western blot, vs DMSO
VEGFR1 [4] = experiment: VEGFR1 protein expression in Panc-1 cells (Western blot, immunostaining); assay type: cell-based; conditions: 50 μM, 48 h
Description: FIGS. 14A-14D show tolfenamic acid decreases expression of Sp and VEGFR1 proteins in pancreatic cancer cells. Tolfenamic acid effects on Panc-1 cells (FIG. 14A and FIG. 14B), and L3.6pl cells (FIG. 14C and FIG. 14D). Cells were treated with DMSO, 50 μM tolfenamic acid, or 50 μM ampiroxicam for 48 h, and whole cell lysates were analyzed by Western blot analysis. […] FIGS. 16A-16D show the interaction of Sp proteins with VEGFR1 promoter sequences. […] The specific Sp protein bands and antibody supershifted complexes are indicated with arrows. Effects of tolfenamic acid on VEGFR1 and Egr-1 protein expression in Panc-1 cells (FIG. 16C), and L3.6pl cells (FIG. 16D). […] Cells are washed once with phosphate buffered saline PBS and collected by scraping in 200 μL of lysis buffer [50 mM HEPES, 0.5M sodium chloride, 1.5 mM magnesium chloride, 1 mM EGTA, 10% (v/v) glycerol, 1% Triton X-100, 5 μL/ml of Protease Inhibitor Cocktail (Sigma)]. The lysates from the cells are incubated on ice for 1 hr with intermittent vortexing followed by centrifugation at 40,000 g for 10 min at 4° C. […] Samples are electrophoresed, transferred to membranes, and proteins detected by incubation with polyclonal primary antibodies Sp1, Sp3, Sp4, HDAC, VEGF (a-20), c-Met, surviving, VEGF, cleaved PARP, and β-tubulin (H-235) followed by blotting with appropriate horseradish peroxidase-conjugated secondary antibody as previously described (Abdelrahim et al, 2004). After autoradiography, band intensities are determined by a scanning laser densitometer (Sharp Electronics Corporation, Mahwah, N.J.) using ZERO-D […] software (Scanalytics Corporation, Billerica, Mass.).

Panc-1 cells = experiment: Cell proliferation assay, Panc-1 cells; assay type: cell-based; conditions: for growth of Panc-1 pancreatic cancer cells: different concentrations, 6 days, cell counting
Description: FIGS. 6A-6E show comparative effects of non-steroidal anti-inflammatory drugs on Panc-1 cell proliferation and Sp protein expression. Effects of tolfenamic acid (FIG. 6A), ampiroxicam (FIG. 6B), naproxen (FIG. 6C), and diclofenac sodium (FIG. 6D) on Panc-1 cell proliferation. Panc-1 cells were treated with different concentrations of non-steroidal anti-inflammatory drugs for 6 days, and the number of cells were determined on days 2, 4, and 6 by cell counting techniques. […] Panc-1 cells were treated with DMSO, 150 μM ampiroxicam, 150 μM naproxen, and 50 μM tolfenamic acid for 48 hr, and levels of Sp proteins and the cleaved poly (ADP-ribose) polymerase (PARP) protein were determined in whole cell lysates by Western blot analysis. […] Panc1, Panc28 and L3.6pl cells are seeded in DMEM/F12 media with 5% FBS and treated the next day with either vehicle (DMSO) or with the indicated compounds' concentrations. Cells are counted at the indicated times using a Z1™ COULTER COUNTER® cell counter. Each experiment is carried out in triplicate and results expressed as means ±SD for each determination.

[5] = test system: Sp protein binding to GC-rich VEGF promoter oligonucleotide; experiment: Gel mobility shift of nuclear extracts from Panc-1 cells with VEGF32P; assay type: cell-based; conditions: nuclear extracts of Panc-1 cells treated with 50 μM for 48 hr
Description: Vascular endothelial growth factor and VEGFR1 oligonucleotides are synthesized and annealed, and 5 pmol aliquots are 5′-end-labeled using T4 kinase and [y-^32P]ATP. After the reaction sample was incubated 20 min on ice, and antibodies against Sp1, Sp3, and Sp4 proteins are added and incubated another 20 min on ice. Protein-DNA complexes are resolved by 5% polyacrylamide gel electrophoresis as previously described (Abdelrahim et al, 2004; Abdelrahim et al, 2005, Abdelrahim et al, submitted 2005).
Panc1 or L3.6pl cells were treated with DMSO, 50 μM tolfenamic acid or 50 μM ampiroxicam for 48 hr. Nuclear extracts from these cells were isolated, incubated with VEGF^32P and analyzed in gel mobility shift assays.
The radiolabeled oligonucleotide contained a GC-rich region (−66 to −47) from the VEGF promoter that binds Sp proteins.

Egr-1 protein [6] = experiment: Egr-1 protein expression in Panc-1 cells, Western blot; assay type: cell-based; conditions: 50 μM, 48 h
Description: as §1, §2

VEGF = experiment: Immunostaining of VEGF in Panc-1 cells; assay type: cell-based; conditions: 50 μM, 48 hr
Description: Panc1 cells are seeded in LAB-TEK® chamber slides (Nalge Nunc International, Naperville, Ill.) at 100,000 cells/well in DME/F12 medium supplemented with 5% fetal bovine serum. Cells are treated with the selected non-steroidal anti-inflammatory drugs and after 48 hr, the media chamber is detached and the remaining glass slides washed in Dulbecco's phosphate buffered saline (PBS). The immunostaining for vascular endothelial growth factor (VEGF) is determined essentially as previously described (Abdelrahim et al, 2005). Briefly, the glass slides are fixed with cold (-20° C.) methanol for 10 min and washed in 0.3% PBS/Tween for 5 min (two times) before blocking with 5% goat serum in antibody dilution buffer (stock solution: 100 ml of PBS/Tween, Ig of bovine serum albumin, 45 ml of glycerol, pH 8.0) for 1 hr at 20° C. After removal of the blocking solution, VEGF rabbit polyclonal antibody (A-20) is added in antibody dilution buffer (1:200) and incubated for 12 hr at 4° C. Slides are washed for 10 min with 0.3% Tween in 0.02 M phosphate buffered saline (three times) and incubated with fluorescein isothiocyanate-conjugated (FITC) goat anti-rabbit antibodies (1:1000 dilution) for 2 hr at 20° C. Slides are then washed for 10 min in 0.3% PBS-Tween (four times). […]

Row | Compound | VEGFR1 protein levels, Western blot (VEGFR1 [1]) | Egr-1 protein (Egr-1 protein [2]) | Sp1, Sp3, and Sp4 protein expression ([3]; 50 μM, 48 hr) | Sp protein degradation ([3]; 150 μM, 48 hr (concentration of comparable growth inhibition)) | VEGFR1 immunostaining (VEGFR1 [4]) | VEGFR1 protein levels, Western blot (VEGFR1 [4]) | growth of Panc-1 pancreatic cancer cells (Panc-1 cells) | Sp3 and Sp1/Sp4 retarded bands with VEGF32P [5] | Egr-1 protein (Egr-1 protein [6]) | immunostaining of secreted vascular endothelial growth factor protein (VEGF) | decrease in levels of Sp1, Sp3, and Sp4 proteins ([3]; 50 μM, 48 hr) | order of potency for decreased expression of Sp1, Sp3, and Sp4 proteins ([3]; 50 μM, 48 hr) | relative potency in Panc-1 growth inhibition (Panc-1 cells; compared with ampiroxicam and naproxen)
1 | CCOC(=O)OC(C)OC1=C(C(=O)Nc2ccccn2)N(C)S(=O)(=O)c2ccccc21 (stereo not shown) [ampiroxicam] | only the latter compound decreased VEGFR1 protein levels | unchanged in all treatment groups | had no effect; also recorded: did not affect Sp protein levels | only tolfenamic acid induced protein degradation | VEGFR1 immunostaining was observed | only the latter compound decreased VEGFR1 protein levels | decreased growth of Panc-1 pancreatic cancer cells | retarded bands of similar intensity | unchanged in all treatment groups | significant lawn of extracellular vascular endothelial growth factor staining | – | – | –
2 | Cc1c(Cl)cccc1Nc1ccccc1C(=O)O [tolfenamic acid] | decreased VEGFR1 protein levels | unchanged in all treatment groups | decreased expression of Sp1, Sp3, and Sp4 proteins; also recorded: induced protein degradation | – | decreased VEGFR1 staining | decreased VEGFR1 protein levels | decreased growth of Panc-1 pancreatic cancer cells | retarded bands were decreased | unchanged in all treatment groups | almost non-detectable | greater than 80% | tolfenamic acid>diclofenac˜diflunisal | exhibited higher potencies
